These results are taken from ChEMBL document CHEMBL5154883, “Conformational Constrained 4-(1-Sulfonyl-3-indol)yl-2-phenylaminopyrimidine Derivatives as New Fourth-Generation Epidermal Growth Factor Receptor Inhibitors Targeting T790M/C797S Mutations” (J Med Chem, 2022).

Data set [1] is described as follows: Cytotoxicity against mouse IL-3 dependent BaF3 cells assessed as inhibition of cell growth incubated for 72 hrs by CCK-8 assay. The settings on record: BaF3 cells (IL-3 dependent). It counts as toxicity, cell-based.
For data set [2], the target named is Epidermal growth factor receptor (Homo sapiens, UniProt P00533). The data set can be described thus: Inhibition of wild type EGFR (unknown origin) by ELISA.
Sequence of Epidermal growth factor receptor (Homo sapiens, UniProt P00533) (P00533 whole entry): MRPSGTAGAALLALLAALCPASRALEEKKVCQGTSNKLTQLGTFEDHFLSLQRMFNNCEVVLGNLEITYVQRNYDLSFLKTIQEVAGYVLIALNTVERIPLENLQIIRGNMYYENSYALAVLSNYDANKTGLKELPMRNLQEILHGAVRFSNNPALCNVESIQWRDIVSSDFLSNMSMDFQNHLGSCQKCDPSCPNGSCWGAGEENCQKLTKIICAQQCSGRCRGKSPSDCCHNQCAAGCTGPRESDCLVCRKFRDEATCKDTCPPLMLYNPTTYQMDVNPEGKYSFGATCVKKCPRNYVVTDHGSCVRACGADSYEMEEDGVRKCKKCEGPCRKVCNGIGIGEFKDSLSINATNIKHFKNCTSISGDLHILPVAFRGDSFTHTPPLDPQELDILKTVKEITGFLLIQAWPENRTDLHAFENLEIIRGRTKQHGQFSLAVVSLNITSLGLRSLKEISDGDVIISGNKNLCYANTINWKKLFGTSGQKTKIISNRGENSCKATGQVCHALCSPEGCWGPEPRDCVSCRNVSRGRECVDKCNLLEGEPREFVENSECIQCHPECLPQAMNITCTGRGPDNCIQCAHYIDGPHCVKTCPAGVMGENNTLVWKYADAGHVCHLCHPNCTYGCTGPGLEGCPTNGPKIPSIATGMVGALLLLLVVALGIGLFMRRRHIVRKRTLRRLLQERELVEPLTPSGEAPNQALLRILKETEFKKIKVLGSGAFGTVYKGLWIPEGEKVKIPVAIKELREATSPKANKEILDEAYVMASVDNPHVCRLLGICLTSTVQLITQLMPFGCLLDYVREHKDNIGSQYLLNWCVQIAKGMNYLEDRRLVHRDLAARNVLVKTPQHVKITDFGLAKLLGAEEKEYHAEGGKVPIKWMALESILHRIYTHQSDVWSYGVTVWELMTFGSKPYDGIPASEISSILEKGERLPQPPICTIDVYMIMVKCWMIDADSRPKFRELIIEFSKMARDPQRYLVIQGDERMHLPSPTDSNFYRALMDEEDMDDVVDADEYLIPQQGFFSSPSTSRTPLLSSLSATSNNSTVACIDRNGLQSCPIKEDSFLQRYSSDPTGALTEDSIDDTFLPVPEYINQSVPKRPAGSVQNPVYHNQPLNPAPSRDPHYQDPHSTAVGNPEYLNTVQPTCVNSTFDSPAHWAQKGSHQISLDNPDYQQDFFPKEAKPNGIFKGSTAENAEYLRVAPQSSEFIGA
Data set [3] deals with Epidermal growth factor receptor (Homo sapiens, UniProt P00533, C797S/L858R/T790M). The data set can be described thus: Inhibition of EGFR L858R/T790M/C797S mutant (unknown origin) by ELISA. Background: In an ELISA, binding on a coated surface is turned into a signal by an enzyme label.
Sequence of Epidermal growth factor receptor (Homo sapiens, UniProt P00533, C797S/L858R/T790M) (P00533 25-1210 T790M/C797S/L858R limits assumed): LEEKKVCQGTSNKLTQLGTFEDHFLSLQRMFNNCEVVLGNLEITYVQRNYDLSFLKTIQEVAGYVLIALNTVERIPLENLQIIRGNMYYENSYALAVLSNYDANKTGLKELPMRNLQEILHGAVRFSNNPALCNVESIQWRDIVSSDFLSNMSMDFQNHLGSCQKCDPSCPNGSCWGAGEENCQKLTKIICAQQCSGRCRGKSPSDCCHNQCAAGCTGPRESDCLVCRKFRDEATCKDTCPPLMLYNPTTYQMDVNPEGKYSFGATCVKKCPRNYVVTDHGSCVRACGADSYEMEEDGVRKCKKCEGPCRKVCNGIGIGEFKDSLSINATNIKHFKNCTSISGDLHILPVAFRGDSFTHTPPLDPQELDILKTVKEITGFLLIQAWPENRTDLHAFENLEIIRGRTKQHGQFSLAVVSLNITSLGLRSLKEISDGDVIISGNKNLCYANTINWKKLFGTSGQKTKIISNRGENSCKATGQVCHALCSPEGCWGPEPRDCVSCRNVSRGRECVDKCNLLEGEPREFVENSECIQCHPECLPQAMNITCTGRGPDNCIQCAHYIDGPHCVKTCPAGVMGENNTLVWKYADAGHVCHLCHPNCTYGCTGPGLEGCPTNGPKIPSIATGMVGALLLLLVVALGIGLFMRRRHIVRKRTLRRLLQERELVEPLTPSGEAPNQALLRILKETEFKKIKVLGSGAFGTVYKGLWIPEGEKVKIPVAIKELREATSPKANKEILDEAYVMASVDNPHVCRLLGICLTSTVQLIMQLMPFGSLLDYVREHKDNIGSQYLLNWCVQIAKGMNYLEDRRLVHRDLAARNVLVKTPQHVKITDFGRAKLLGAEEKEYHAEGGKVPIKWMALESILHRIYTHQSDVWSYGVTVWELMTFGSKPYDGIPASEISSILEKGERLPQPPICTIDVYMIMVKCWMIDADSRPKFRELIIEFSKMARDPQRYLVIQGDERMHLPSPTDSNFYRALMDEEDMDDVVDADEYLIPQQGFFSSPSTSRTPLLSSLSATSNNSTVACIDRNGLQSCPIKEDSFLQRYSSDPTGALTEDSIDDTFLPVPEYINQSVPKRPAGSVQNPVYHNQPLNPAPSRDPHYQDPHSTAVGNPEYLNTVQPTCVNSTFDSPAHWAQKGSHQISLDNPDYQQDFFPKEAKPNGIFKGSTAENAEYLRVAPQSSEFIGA
In data set [4] the test system is BaF3. The data set can be described thus: Antiproliferative activity against mouse BaF3 cells stably expressing EGFR L858R/T790M/C797S mutant assessed as inhibition of cell growth incubated for 72 hrs by CCK-8 assay. To be noted: BaF3, 72 h. It is filed as functional, cell-based. (In general: Tetrazolium assays rely on reduction of a dye to a coloured formazan, in cell work by metabolically active cells.)

Data set [5] addresses Epidermal growth factor receptor (Homo sapiens, UniProt P00533, C797S/EX19DEL/T790M). The data set can be described thus: Inhibition of EGFR 19 del/T790M/C797S mutant (unknown origin) by ELISA.
The target of data set [6] is Epidermal growth factor receptor (Homo sapiens, UniProt P00533, L858R/T790M). Kind of data set: Inhibition of EGFR L858R/T790M mutant (unknown origin) by ELISA.
Sequence of Epidermal growth factor receptor (Homo sapiens, UniProt P00533, L858R/T790M) (P00533 25-1210 T790M/L858R limits assumed): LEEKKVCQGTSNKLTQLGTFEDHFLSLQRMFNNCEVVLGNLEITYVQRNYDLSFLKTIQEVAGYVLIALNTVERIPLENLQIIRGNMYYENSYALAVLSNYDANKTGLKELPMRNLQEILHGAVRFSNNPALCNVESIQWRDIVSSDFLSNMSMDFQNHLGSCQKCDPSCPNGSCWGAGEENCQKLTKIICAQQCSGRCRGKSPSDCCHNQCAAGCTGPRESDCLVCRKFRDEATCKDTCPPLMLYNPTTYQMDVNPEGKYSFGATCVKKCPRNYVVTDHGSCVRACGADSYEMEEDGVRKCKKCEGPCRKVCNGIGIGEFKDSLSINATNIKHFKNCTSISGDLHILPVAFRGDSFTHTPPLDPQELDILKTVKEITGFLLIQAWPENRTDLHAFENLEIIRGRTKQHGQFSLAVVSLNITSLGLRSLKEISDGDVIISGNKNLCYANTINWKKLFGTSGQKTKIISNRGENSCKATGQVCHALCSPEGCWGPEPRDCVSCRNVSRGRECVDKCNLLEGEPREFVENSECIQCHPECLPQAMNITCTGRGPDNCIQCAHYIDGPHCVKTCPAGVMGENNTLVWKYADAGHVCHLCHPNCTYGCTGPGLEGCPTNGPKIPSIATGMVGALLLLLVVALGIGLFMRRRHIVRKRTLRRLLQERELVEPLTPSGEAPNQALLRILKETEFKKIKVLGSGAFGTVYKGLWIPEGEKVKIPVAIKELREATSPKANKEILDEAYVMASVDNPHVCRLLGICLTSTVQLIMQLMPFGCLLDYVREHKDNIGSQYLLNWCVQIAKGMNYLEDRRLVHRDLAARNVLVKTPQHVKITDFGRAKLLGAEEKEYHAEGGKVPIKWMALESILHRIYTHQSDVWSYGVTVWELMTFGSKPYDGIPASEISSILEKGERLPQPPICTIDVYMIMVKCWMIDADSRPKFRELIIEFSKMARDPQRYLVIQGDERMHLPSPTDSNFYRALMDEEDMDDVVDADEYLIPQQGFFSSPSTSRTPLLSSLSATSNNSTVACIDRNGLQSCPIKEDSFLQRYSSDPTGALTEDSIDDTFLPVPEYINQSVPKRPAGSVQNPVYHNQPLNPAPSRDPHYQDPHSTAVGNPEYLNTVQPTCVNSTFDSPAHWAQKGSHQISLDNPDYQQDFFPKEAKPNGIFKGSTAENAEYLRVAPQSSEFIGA

Sequence of Epidermal growth factor receptor (Homo sapiens, UniProt P00533, C797S/EX19DEL/T790M) (P00533 whole entry, looked up, stated change not applied): as the sequence (P00533 whole entry) above

As to `CCS(=O)(=O)n1cc2c3ccc(cc31)OCCCCCCOc1cc(c(Cl)cc1N1CCOCC1)Nc1ncc(Cl)c-2n1`, the IC50 at 72 h in data set [1] is greater than 10000 nM. For the same compound, the IC50 in data set [2] is greater than 1000 nM; in data set [3], 57.8 nM; in data set [4], 140 nM.

As for `CCS(=O)(=O)n1cc2c3cc(ccc31)OCCCCCOc1cc(ccc1N1CCOCC1)Nc1ncc(Cl)c-2n1`, the IC50 in data set [2] and in data set [3] was greater than 1000 nM in each case.

As for `CCS(=O)(=O)n1cc(-c2nc(Nc3ccc(N4CCC(N5CCN(C)CC5)CC4)c(Cl)c3OC)ncc2Cl)c2ccccc21`, the IC50 in data set [5], in data set [6], in data set [2] and in data set [3] was greater than 1000 nM in each case.

As for `CCS(=O)(=O)n1cc(-c2nc(Nc3cc(C(C)C)c(N4CCC(N5CCN(C)CC5)CC4)cc3OC)ncc2Cl)c2ccccc21`, the concentration for half-maximal inhibition (IC50) is 116 nM in data set [5], 74.3 nM in data set [6], greater than 1000 nM in data set [2] and 478 nM in data set [3].

Take `CCS(=O)(=O)n1cc2c3cc(ccc31)OCCCCCCOc1cc(ccc1N1CCOCC1)Nc1ncc(Cl)c-2n1`: the IC50 in data set [2] and in data set [3] was greater than 1000 nM in each case.

Consider `CCS(=O)(=O)n1cc2c3ccc(cc31)OCCCCCCOc1cc(ccc1N1CCOCC1)Nc1ncc(Cl)c-2n1`, for which, in data set [1], the concentration for half-maximal inhibition (IC50) at 72 h was 293 nM. Also, the figures for the IC50 in data set [2], in data set [3] and in data set [4] were 236 nM, 6.2 nM and 16 nM, respectively.

With `CCS(=O)(=O)n1cc2c3ccc(cc31)OCCCCCCOc1cc(c(F)cc1N1CCOCC1)Nc1ncc(Cl)c-2n1`, the 50% inhibitory concentration (IC50) at 72 h in data set [1] came out at 2560 nM. Besides, the values for the IC50 in data set [2], in data set [3] and in data set [4] were 885 nM, 28 nM and 66 nM, respectively.

`COc1cc(N2CCC(N3CCN(C)CC3)CC2)ccc1Nc1ncc(Cl)c(-c2cn(C(C)=O)c3ccccc23)n1`: the half-maximal inhibitory concentration (IC50) in data set [5] was 8.5 nM; in data set [6] it was 12.9 nM; in data set [2], greater than 1000 nM; in data set [3], 77.8 nM.

On to `CCS(=O)(=O)n1cc2c3ccc(cc31)OCCCCCOc1cc(ccc1N1CCOCC1)Nc1ncc(Cl)c-2n1`, for which the 50% inhibitory concentration (IC50) at 72 h in data set [1] turned out to be 349 nM. Further, the IC50 in data set [2] was greater than 1000 nM; in data set [3], 19 nM; in data set [4], 168 nM.

`CCOc1cc(N2CCC(N3CCN(C)CC3)CC2)c(Cl)cc1Nc1ncc(Cl)c(-c2cn(S(=O)(=O)CC)c3ccccc23)n1`: the IC50 in data set [5] is 12 nM; in data set [6] it was 7.5 nM; in data set [2], 344 nM; in data set [3] it was 4.2 nM; in data set [4], 3150 nM. In data set [1], the IC50 at 72 h came to 7860 nM.

On to `COc1cc(N2CCC(N3CCN(C)CC3)CC2)ccc1Nc1ncc(Cl)c(-c2cn(S(=O)(=O)C3CC3)c3ccccc23)n1`, for which the concentration for half-maximal inhibition (IC50) was 33.3 nM in data set [5], 32.6 nM in data set [6], greater than 1000 nM in data set [2] and 222 nM in data set [3].

As to `COc1cc(N2CCC(N3CCN(C)CC3)CC2)ccc1Nc1ncc(Cl)c(-c2cn(S(C)(=O)=O)c3ccccc23)n1`, the IC50 is 1.9 nM in data set [5], 5.5 nM in data set [6], greater than 1000 nM in data set [2] and 41.9 nM in data set [3].

With `CCS(=O)(=O)n1cc(-c2nc(Nc3cc(Cl)c(N4CCC(N5CCN(C)CC5)CC4)cc3OC(C)C)ncc2Cl)c2ccccc21`, the concentration for half-maximal inhibition (IC50) in data set [5] came out at 8.1 nM; in data set [6], 2.1 nM; in data set [2] it was 413 nM; in data set [3] it was 30.8 nM; in data set [4], 2770 nM. Moreover, the IC50 at 72 h in data set [1] is greater than 10000 nM.

As for `CCS(=O)(=O)n1cc2c3ccc(cc31)OCCCCCCOc1cc(c(C3CC3)cc1N1CCOCC1)Nc1ncc(Cl)c-2n1`, in data set [1], the half-inhibitory concentration (IC50) at 72 h was greater than 10000 nM. Besides, the concentration for half-maximal inhibition (IC50) was greater than 1000 nM in data set [2], 56.4 nM in data set [3] and 263 nM in data set [4].

Consider `CCS(=O)(=O)n1cc2c3ccc(cc31)OCCCCCCOc1cc(c(C3CCCC3)cc1N1CCOCC1)Nc1ncc(Cl)c-2n1`, for which the values for the half-inhibitory concentration (IC50) in data set [2] and in data set [3] were greater than 1000 nM and 165 nM, respectively.

For the compound `CCS(=O)(=O)n1cc(-c2nc(Nc3cc(C)c(N4CCC(N5CCN(C)CC5)CC4)cc3OC)ncc2Cl)c2ccccc21`, the half-inhibitory concentration (IC50) in data set [5] came to 69.2 nM; in data set [6], 2.7 nM; in data set [2], 55.9 nM; in data set [3], 1.5 nM.

On to `COc1cc(N2CCC(N3CCN(C)CC3)CC2)ccc1Nc1ncc(Cl)c(-c2cn(S(=O)(=O)C(C)C)c3ccccc23)n1`, for which the half-inhibitory concentration (IC50) was 24.2 nM in data set [5], 18 nM in data set [6], greater than 1000 nM in data set [2] and 145 nM in data set [3].

`CCS(=O)(=O)n1cc(-c2nc(Nc3cc(Cl)c(N4CCC(N5CCN(C)CC5)CC4)cc3C)ncc2Cl)c2ccccc21`: the IC50 turned out to be 4.7 nM in data set [5]; 16.3 nM in data set [6]; 547 nM in data set [2]; 1.6 nM in data set [3]; 410 nM in data set [4]. For the same compound, the concentration for half-maximal inhibition (IC50) at 72 h in data set [1] is 1320 nM.

On to `CCS(=O)(=O)n1cc2c3ccc(cc31)OCCCCOc1cc(ccc1N1CCOCC1)Nc1ncc(Cl)c-2n1`, for which the IC50 in data set [2] and in data set [3] was greater than 1000 nM in each case.

Turning to `CCc1cc(Nc2ncc(Cl)c(-c3cn(S(=O)(=O)CC)c4ccccc34)n2)c(OC)cc1N1CCC(N2CCN(C)CC2)CC1`, the IC50 in data set [5] amounted to 54.8 nM; in data set [6], 6.3 nM; in data set [2] it was 262 nM; in data set [3] it was 21.8 nM.

For the compound `CCS(=O)(=O)n1cc2c3ccc(cc31)OCCCCCCCCOc1cc(ccc1N1CCOCC1)Nc1ncc(Cl)c-2n1`, the IC50 at 72 h in data set [1] was 2440 nM. Besides, the values for the 50% inhibitory concentration (IC50) in data set [2], in data set [3] and in data set [4] were greater than 1000 nM, 142 nM and 450 nM, respectively.

Turning to `CCS(=O)(=O)n1cc(-c2nc(Nc3ccc(N4CCC(N5CCN(C)CC5)CC4)cc3OC)ncc2Cl)c2ccccc21`, the IC50 is 5.6 nM in data set [5], 5.6 nM in data set [6], greater than 1000 nM in data set [2] and 34.8 nM in data set [3].

For `CCS(=O)(=O)n1cc2c3ccc(cc31)OCCCCCCCOc1cc(ccc1N1CCOCC1)Nc1ncc(Cl)c-2n1`, the IC50 at 72 h in data set [1] amounted to 773 nM. The 50% inhibitory concentration (IC50) in data set [2] is greater than 1000 nM; in data set [3], 89.9 nM; in data set [4], 180 nM.

For `COc1cc(N2CCC(N3CCN(C)CC3)CC2)ccc1Nc1ncc(Cl)c(-c2c[nH]c3ccccc23)n1`, the IC50 is 22.6 nM in data set [5], 15.6 nM in data set [6], greater than 1000 nM in data set [2] and 124 nM in data set [3].

As for `CCS(=O)(=O)n1cc(-c2nc(Nc3ccc(N4CCC(N5CCN(C)CC5)CC4)c(Cl)c3)ncc2Cl)c2ccccc21`, the half-maximal inhibitory concentration (IC50) was 4.9 nM in data set [5], 2.2 nM in data set [6], 466 nM in data set [2] and 14.4 nM in data set [3].

Turning to `CCS(=O)(=O)n1cc(-c2nc(Nc3cc(Cl)c(N4CCC(N5CCN(C)CC5)CC4)cc3OC)ncc2Cl)c2ccccc21`, the IC50 in data set [5] was found to be 25.6 nM; in data set [6] it was 6.6 nM; in data set [2], 816 nM; in data set [3], 4.3 nM; in data set [4], 2610 nM. Further, the IC50 at 72 h in data set [1] was found to be 4920 nM.

Take `CCc1cc(N2CCOCC2)c2cc1Nc1ncc(Cl)c(n1)-c1cn(S(=O)(=O)CC)c3cc(ccc13)OCCCCCCO2`: in data set [1], the IC50 at 72 h is 4640 nM. For the same compound, the IC50 in data set [2] is greater than 1000 nM; in data set [3], 32.1 nM; in data set [4], 142 nM.

What is called IC50 is the concentration that gives 50% inhibition.
